In ChEMBL document CHEMBL3351499, “'Click' glycosylation of peptides through cysteine propargylation and CuAAC” (Bioorg Med Chem, 2014):
Residues, ends and D or L forms follow the SMILES beside them. *: point of attachment. X3 = OC[C@H]1O[C@H](OCCn2cc(C*)nn2)[C@@H](O)[C@@H](O)[C@@H]1O; X4 = OC[C@H]1O[C@@H](OCCn2cc(C*)nn2)[C@H](O)[C@@H](O)[C@@H]1O; X6 = O[C@@H]1[C@@H](O)[C@@H](OCCn2cc(C*)nn2)O[C@H](CF)[C@H]1O; X1 = OC[C@H]1O[C@@H](OCCn2cc(C*)nn2)[C@H](O)[C@@H](O)[C@H]1O; X2 = O[C@@H]1[C@@H](O)[C@H](OCCn2cc(C*)nn2)O[C@H](CF)[C@H]1O; X5 = O[C@@H]1[C@H](O)[C@@H](OCCn2cc(C*)nn2)O[C@H](CF)[C@H]1O

Assay: Antiplatelet activity in citrated human platelet rich plasma assessed as inhibition of ADP-induced platelet aggregation incubated for 10 mins at 37 degC by light transmission aggregometry
Type: functional

NC(N)=NCCC[C@H](N)C(=O)NCC(=O)N[C@@H](CC(=O)O)C(=O)O and NC(N)=NCCC[C@H](N)C(=O)NCC(=O)N[C@@H](CC(=O)O)C(=O)N[C@@H](CS)C(=O)O (H-RGDC-OH) are within 1.5-fold of each other in IC50: 319 µM for the first, 322 µM for the second.

CC(C)[C@@H]1NC(=O)[C@H](Cc2ccccc2)NC(=O)[C@H](CC(=O)O)NC(=O)CNC(=O)[C@H](CCCNC(=N)N)NC1=O and N=C(N)NCCC[C@@H]1NC(=O)[C@H](CS)NC(=O)[C@H](Cc2ccccc2)NC(=O)[C@H](CC(=O)O)NC(=O)CNC1=O (cyclo(RGDFC)) are within 1.5-fold of each other in IC50: 72 µM for the first, 65 µM for the second.

Going from N=C(N)NCCC[C@@H]1NC(=O)[C@H](CSCc2cn(CCO[C@@H]3O[C@H](CF)[C@@H](O)[C@H](O)[C@H]3O)nn2)NC(=O)[C@H](Cc2ccccc2)NC(=O)[C@H](CC(=O)O)NC(=O)CNC1=O to N=C(N)NCCC[C@H](N)C(=O)NCC(=O)N[C@@H](CC(=O)O)C(=O)N[C@@H](CSCc1cn(CCO[C@@H]2O[C@H](CF)[C@@H](O)[C@H](O)[C@H]2O)nn1)C(=O)O (H-RGDC(X2)-OH), the IC50 falls from 148 µM to 66 µM (2.2-fold).

Going from N=C(N)NCCC[C@H](N)C(=O)NCC(=O)N[C@@H](CC(=O)O)C(=O)N[C@@H](CSCc1cn(C[C@H]2O[C@H](O[C@H]3O[C@H](Cn4cc(CSC[C@H](NC(=O)[C@H](CC(=O)O)NC(=O)CNC(=O)[C@@H](N)CCCNC(=N)N)C(=O)O)nn4)[C@@H](O)[C@H](O)[C@H]3O)[C@@H](O)[C@@H](O)[C@@H]2O)nn1)C(=O)O to N=C(N)NCCC[C@H](N)C(=O)NCC(=O)N[C@@H](CC(=O)O)C(=O)N[C@@H](CSCc1cn(CCO[C@@H]2O[C@H](CO)[C@H](O)[C@H](O)[C@H]2O)nn1)C(=O)O (H-RGDC(X1)-OH), the IC50 falls from 76.5 µM to 23 µM (3.3-fold).

N=C(N)NCCC[C@H](N)C(=O)NCC(=O)N[C@@H](CC(=O)O)C(=O)N[C@@H](CSCc1cn(CCO[C@H]2O[C@H](CO)[C@@H](O)[C@H](O)[C@@H]2O)nn1)C(=O)O (H-RGDC(X3)-OH) and N=C(N)NCCC[C@H](N)C(=O)NCC(=O)N[C@@H](CC(=O)O)C(=O)N[C@@H](CSCc1cn(CCO[C@@H]2O[C@H](CO)[C@@H](O)[C@H](O)[C@H]2O)nn1)C(=O)O (H-RGDC(X4)-OH) are within 1.5-fold of each other in IC50: 47.6 µM for the first, 44 µM for the second.

N=C(N)NCCC[C@H](N)C(=O)NCC(=O)N[C@@H](CC(=O)O)C(=O)N[C@@H](CSCc1cn(CCO[C@H]2O[C@H](CF)[C@@H](O)[C@H](O)[C@@H]2O)nn1)C(=O)O (H-RGDC(X5)-OH) and N=C(N)NCCC[C@H](N)C(=O)NCC(=O)N[C@@H](CC(=O)O)C(=O)N[C@@H](CSCc1cn(CCO[C@H]2O[C@H](CF)[C@@H](O)[C@H](O)[C@H]2O)nn1)C(=O)O (H-RGDC(X6)-OH) are within 1.5-fold of each other in IC50: 23.5 µM for the first, 26 µM for the second.
